Reference: patent US10730849B2, “Benzo[b]thiophene compounds as STING agonists” (MERCK SHARP & DOHME CORP., priority 2016, dated 2020)

Tests used:
full-length HAQ STING = full-length HAQ STING (Homo sapiens (Human), UniProt Q86WV6, G230A/H232R/R293Q/R71H); experiment: 3H-cGAMP filtration binding assay (HAQ STING); conditions: competition with tritiated cGAMP, HAQ STING membrane
Text: The ability of compounds to bind STING is quantified by the ability to compete with tritiated cGAMP ligand for human STING receptor membrane using a radioactive filter-binding assay. The binding assay employs STING receptor obtained from Hi-Five cell membranes overexpressing full-length HAQ STING prepared in-house and tritiated cGAMP ligand also purified in-house.
(§1) The ability of compounds to bind STING is quantified by their ability to compete with tritiated cGAMP ligand for human STING receptor membrane using a radioactive filter-binding assay. The binding assay employs STING receptor obtained from Trichoplusia ni cell membranes (T. ni; Expression Systems, cat #94-002F, www.exressionsystems.com) overexpressing full-length HAQ STING and tritiated cGAMP ligand.
The basic HAQ STING filtration assay protocol is as follows:
Compound and membrane then preincubated for 60 min at RT to allow compound binding to equilibrate. Following equilibration, 8 nM of [^3H]c-GAMP ligand was prepared by diluting into assay buffer, and 50 uL of this working stock was then manually added to each well of the assay plate. […] The filter plates were then dried at 55° C. for 30 min using a pressurized oven before 30 uL of ULTIMA GOLD F scintillate was added to each well. Tritium levels for each reaction well were then measured using a PerkinElmer TopCount plate reader.
(§2) After normalization to controls, the percent activity for each compound concentration was calculated by measuring the amount of remaining radioactivity. The plot of percent activity versus the log of compound concentration was fit with a 4-parameter dose response equation to calculate EC50 values.

THP1 cells = experiment: IFN-β secretion in THP1 cell culture (5 h); format: cell-based, human; conditions: relative to 30 uM cGAMP
Protocol: The ability of compounds to stimulate the secretion of interferon-beta from THP1 cells was measured using a human IFN-3 AlphaLISA kit (Perkin Elmer, Cat. No. AL265F). The basic protocol is as follows:
The cell viability and count was ascertained using a Beckman Coulter V-Cell XR cell counter. The cells suspension was centrifuged at 200×g for 5 min at RT. Cells were resuspended to a density of 0.8×10^6/mL in 37° C. assay medium. Subsequent liquid transfers were performed using either a Matrix electronic multichannel pipette or an Agilent Bravo Automated Liquid Handling Platform.
The assay was started by dispensing 40 μL of the previously prepared cell suspension into the wells of the plate containing compounds. After 5 h incubation at 37° C., 5% CO2 in a humidified atmosphere, the plate of cells and compounds was centrifuged at 200×g for 5 min at RT. […] To these supernatant-containing wells was added 10 μL of 5× Anti-Analyte Acceptor beads ([…] of AlphaLISA HiBlock Buffer) and incubated for 30 min at RT while shaking on an orbital plate shaker. To each well was added 10 μL of 5× Biotinylated Antibody Anti-analyte (5 nM in AlphaLISA HiBlock Buffer) and incubated on an orbital plate shaker for 60 min at RT or overnight at 4° C. To each well was added 25 μL of 2× SA-Donor beads ([…] in AlphaLISA HiBlock Buffer) and incubated for 30-45 min at RT in the dark while shaking on an orbital plate shaker. The plate was then read on a Perkin Elmer Envision (λex=680 nm, […]). The percent effect of the AlphaLISA signal at each compound concentration was calculated based on 30 uM cGAMP positive controls and 0.3% DMSO negative controls. The plot of percent effect versus the log of compound concentration was fit with a 4-parameter concentration response equation to calculate EC50 values.
Compounds of the disclosure were evaluated for IFN-3 secretion in THP1 cell culture as described above.

full-length WT STING = full-length WT STING (Homo sapiens (Human), UniProt Q86WV6, H232R); experiment: 3H-cGAMP filtration binding assay (WT STING); conditions: for EC50: competition with tritiated cGAMP, WT STING membrane; for inhibition at 20 µM: WT STING, compound at 20 uM
Text: as §1, with “www.expressionsystems.com)” for “www.exressionsystems.com)”, “WT” for “HAQ”
The basic WT STING filtration assay protocol is as follows:
The filter plates were then dried at 55° C. for 30 min using a pressurized VWR oven before 30 uL of ULTIMA GOLD F scintillate was added to each well. Tritium levels for each reaction well were then measured using a PerkinElmer TopCount plate reader.
as §2

Chain of full-length HAQ STING (Q86WV6 other isoform, or with tags, fused parts or gaps, stated change not applied): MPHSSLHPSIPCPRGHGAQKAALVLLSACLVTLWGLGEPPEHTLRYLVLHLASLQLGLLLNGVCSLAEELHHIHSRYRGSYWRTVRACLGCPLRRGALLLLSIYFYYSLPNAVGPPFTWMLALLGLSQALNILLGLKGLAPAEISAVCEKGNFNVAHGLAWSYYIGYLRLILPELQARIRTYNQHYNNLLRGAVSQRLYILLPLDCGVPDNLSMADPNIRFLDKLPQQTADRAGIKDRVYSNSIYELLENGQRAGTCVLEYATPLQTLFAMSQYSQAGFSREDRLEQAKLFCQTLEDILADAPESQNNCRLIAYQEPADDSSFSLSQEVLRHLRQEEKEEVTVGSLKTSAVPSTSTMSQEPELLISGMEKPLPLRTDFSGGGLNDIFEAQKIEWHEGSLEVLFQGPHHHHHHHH
Chain of full-length WT STING (Q86WV6 other isoform, or with tags, fused parts or gaps H232R (already in the parent)): as the sequence (Q86WV6 other isoform, or with tags, fused parts or gaps, stated change not applied) above, with H71R, A230G, Q293R counted along it

Row | Compound | EC50 (full-length HAQ STING) [µM] | EC50 (full-length WT STING) [µM] | inhibition at 20 µM (full-length WT STING) [%] | % Effect at 30 μM relative to 2’3’-cGAMP (THP1 cells) [%]
1 | COCC(CC(=O)c1cc2cc(OC)c(OC)cc2s1)C(=O)O (stereo not drawn) [Example 17, 4-(5,6-Dimethoxybenzo[b]thiophen-2-yl)-2-(methoxymethyl)-4-oxobutanoic acid] | 5.87 | 14.8 |  | 21
2 | C=Cc1cc2cc(C(=O)CCC(=O)O)sc2cc1OC [Example 18, 4-(6-Methoxy-5-vinylbenzo[b]thiophen-2-yl)-4-oxobutanoic acid] | 12.5 |  | 21 | 273
3 | COc1cc2sc(C(=O)CCC(=O)O)cc2cc1Br [Example 19, 4-(5-Bromo-6-methoxybenzo[b]thiophene-2-yl)-4-oxobutanoic acid] | 9.7 |  | 30 | 153
4 | C[C@@H](CC(=O)c1cc2cc(Cl)c(Cl)cc2s1)C(=O)O [Example 20] | 10.7 |  | 33 | 47
5 | CCc1cc2sc(C(=O)C[C@H](C)C(=O)O)cc2cc1OC [Example 21, (S)-4-(6-Ethyl-5-methoxybenzo[b]thiophen-2-yl)-2-methyl-4-oxobutanoic acid] | 6.34 | 14.3 |  | 162
6 | COc1cc2cc(C(=O)C[C@H](C)C(=O)O)sc2cc1C [Example 22, (S)-4-(5-methoxy-6-methylbenzo[b]thiophen-2-yl)-2-methyl-4-oxobutanoic acid] | 8.81 | 17.1 |  | 43
7 | COc1cc2cc(C(=O)CCC(=O)O)sc2cc1Cl [Example 23, 4-(6-Chloro-5-methoxybenzo[b]thiophen-2-yl)-4-oxobutanoic acid] | 6.05 |  | 37 | 191
8 | COc1cc2sc(C(=O)CCC(=O)O)c(Cl)c2cc1OC [Example 27, 4-(3-chloro-5,6-dimethoxybenzo[b]thiophen-2-yl)-4-oxobutanoic acid] | 13.2 |  | 19 | 14
9 | Cc1cc2cc(C(=O)C[C@H](C)C(=O)O)sc2cc1Br [Example 29, (S)-4-(6-bromo-5-methylbenzo[b]thiophen-2-yl)-2-methyl-4-oxobutanoic acid] | 13.8 |  | 16 | 9
10 | CCOc1cc2sc(C(=O)C[C@H](C)C(=O)O)cc2cc1Cl [Example 33, (S)-4-(5-chloro-6-ethoxybenzo[b]thiophen-2-yl)-2-methyl-4-oxobutanoic acid] | 6.46 |  | 30 | 25
11 | Cc1cc2sc(C(=O)C[C@H](C)C(=O)O)cc2cc1Br [Example 34, (S)-4-(5-bromo-6-methylbenzo[b]thiophen-2-yl)-2-methyl-4-oxobutanoic acid] | 10.4 |  | 18 | 34
12 | C#Cc1cc2cc(C(=O)CCC(=O)O)sc2cc1OC [Example 36, 4-(5-Ethynyl-6-methoxybenzo[b]thiophen-2-yl)-4-oxobutanoic acid] | 14.4 |  | 9 | 11
13 | C=Cc1cc2cc(C(=O)C[C@H](C)C(=O)O)sc2cc1OC [Example 41, (S)-4-(6-methoxy-5-vinylbenzo[b]thiophen-2-yl)-2-methyl-4-oxobutanoic acid] | 5.7 | 14.7 |  | 312
14 | COc1cc2cc(C(=O)C[C@H](C)C(=O)O)sc2cc1CCF [Example 46, (2S)-4-[6-(2-fluoroethyl)-5-methoxy-1-benzothiophen-2-yl]-2-methyl-4-oxobutanoic acid] | 7.45 |  | 24 | 205
15 | CCOC(=O)C(C)(O)CC(=O)c1cc2cc(OC)c(OC)cc2s1 (stereo not drawn) [Example 48, Ethyl 4-(5,6-dimethoxybenzo[b]thiophen-2-yl)-2-hydroxy-2-methyl-4-oxobutanoate] | 19.2 |  | 23 | 71
16 | COc1cc2sc(C(=O)[C@H]3C[C@H]3C(=O)O)cc2c(F)c1OC [Example 51, (1R,2S)-2-(4-fluoro-5,6-dimethoxybenzo[b]thiophene-2-carbonyl)cyclopropane-1-carboxylic acid] | 17.8 |  | 3 | 31
17 | COc1cc2cc(C(=O)CCC(=O)O)sc2cc1OC(F)F [Example 53, 4-(6-(difluoromethoxy)-5-methoxybenzo[b]thiophen-2-yl)-4-oxobutanoic acid] | 13.7 |  | 7 | 182

The next lines start with results.

Row | EC50 (full-length HAQ STING) [µM] | EC50 (full-length WT STING) [µM] | inhibition at 20 µM (full-length WT STING) [%] | Compound | % Effect at 30 μM relative to 2’3’-cGAMP (THP1 cells) [%]
18 | 2.64 | 8.54 |  | COc1cc2sc(C(=O)C[C@H](C)C(=O)O)cc2cc1Br [Example 24, (S)-4-(5-Bromo-6-methoxybenzo[b]thiophen-2-yl)-2-methyl-4-oxobutanoic acid] | 214
19 | 1.95 | 9.26 |  | COc1cc2sc(C(=O)C[C@H](C)C(=O)O)cc2cc1Cl [Example 28, (S)-4-(5-chloro-6-methoxybenzo[b]thiophen-2-yl)-2-methyl-4-oxobutanoic acid] | 86
20 | 5.05 | 18.7 |  | COc1cc2sc(C(=O)C[C@H](C)C(=O)O)cc2cc1F [Example 30, (S)-4-(5-fluoro-6-methoxybenzo[b]thiophen-2-yl)-2-methyl-4-oxobutanoic acid] | 15
21 | 3.63 | 17 |  | C[C@@H](CC(=O)c1cc2cc(Cl)c(Br)cc2s1)C(=O)O [Example 32, (S)-4-(6-bromo-5-chlorobenzo[b]thiophen-2-yl)-2-methyl-4-oxobutanoic acid] | 24
22 | 5.55 | 7.67 |  | COc1cc2cc(C(=O)CC(C)C(=O)O)sc2cc1OC (stereo not drawn) [Example 35, 4-(5,6-dimethoxybenzo[b]thiophen-2-yl)-2-methyl-4-oxobutanoic acid] | 57
23 | 1.2 | 4.11 |  | COc1cc2cc(C(=O)C[C@H](C)C(=O)O)sc2cc1O [Example 43, (S)-4-(6-hydroxy-5-methoxybenzo[b]thiophen-2-yl)-2-methyl-4-oxobutanoic acid] | 56
24 | 0.89 | 2.14 |  | CCC(CC(=O)c1cc2c(F)c(OC)c(OC)cc2s1)C(=O)O (stereo not drawn) [Example 50, 2-ethyl-4-(4-fluoro-5,6-dimethoxybenzo[b]thiophen-2-yl)-4-oxobutanoic acid] | 115
25 | 0.599 |  | 101 | COc1cc2sc(C(=O)[C@@H]3C[C@@H]3C(=O)O)cc2c(F)c1OC [Example 52, (1S,2R)-2-(4-fluoro-5,6-dimethoxybenzo[b]thiophene-2-carbonyl)cyclopropane-1-carboxylic acid] | 142
